Laboratory results: patent publication US20050272636A1, “Treatment and diagnosis of a reproductive disorder by measuring or inhibiting interferon-gamma” (Adelaide Research & Innovation Pty Ltd., priority 2002, published 2005)

System: mice
Assay: Effect of IFN-γ treatment on pregnancy outcome in mice (Example 8)
Assay type: in vivo
Conditions: implantation rate, viable versus resorbing fetuses, fetal and placental weight on day 18
Protocol: Mice are housed under specific pathogen-free conditions at the University of Adelaide Medical School Animal House on a 12:12 light-dark cycle, and administered food and water ad libitum. Adult Balb/c×C57B1/6 F1 females (7-10 weeks old) are synchronised into estrus by caging in close proximity to males. Estrus is identified on the basis of presence of cornified epithelial cells in vaginal smears prepared at 0900-1000 h daily and examined by phase contrast microscopy. On the day of estrus (day 0) females are caged with proven fertile Balb/k males for natural mating. The day of sighting a vaginal plug is nominated day 1 of pregnancy.
Mice are randomly allocated to one of four groups and treated as follows: Group 1 (100 ng IFN-γ) mice receive three intraperitoneal injections of […] recombinant mouse IFN-γ (rmIFN-γ, R&D Systems) in 200 μl PBS containing 1% bovine serum albumin (PBS-BSA) at 1700 h on day 0, at 1000 h on day 1 and 1700hon day 1.
Group 2 (250 ng IFN-γ) receive three injections of 250 ng rmIFN-γ according to the same time schedule.
Group 3 (control) receive three injections of PBS-BSA instead of IFN-γ according to the same time schedule.
Group 4 (comparison) Mice are mated but otherwise remain untreated.
Twenty mice per group are used to ensure statistical significance in treatment effects.
Alternatively, a transcervical delivery route for IFN-γ is used. Treatments are delivered directly into the uterine lumen with the aid of a tom-cat catheter (Sovereign, St Louis Mo.). In mated animals this requires removal of vaginal plugs using forceps to allow transcervical access. Mice are randomly allocated to one of four groups and treated as follows: the first group (100 ng IFN-γ) mice receive three transcervical injections of […] recombinant mouse IFN-γ (rmIFN-γ, R&D Systems) in 200 μl PBS containing 1% bovine serum albumin (PBS-BSA) at 1700 h on day 0, at 1000 h on day 1 and 1700 h on day 1. The second group (25 ng IFN-γ) receive three injections of 25 ng rmIFN-γ according to the same time schedule. The third group (control) receive three injections of PBS-BSA instead of IFN-γ according to the same time schedule. For comparison, a fourth group of mice are mated but otherwise would remain untreated. Twenty mice per group are used to ensure statistical significance in treatment effects.
Pregnant females are sacrificed by cervical dislocation at 1000 h -1200 h on day 18 of gestation. The intact uterus of each female is removed and total, viable and resorbing implantation sites counted. Each viable fetus is dissected from the amniotic sac and umbilical cord, and fetuses and placentae weighed. Placental tissues are fixed in paraformaldehyde and processed for histological staining of paraffin sections, using Masson's trichrome stain.

## rhTGFβ1: recombinant human transforming growth factor β1 (R&D Systems)
  effect on the detrimental effects of IFN-γ on pregnancy outcome: reverses the detrimental effects of IFN-γ
